From PMC5218480 (PLoS ONE, 2017) come the findings set out here.

The assay relates to MV-4-11 cells. Put plainly: Gene expression microarray analysis (Affymetrix PrimeView) and GSEA. The class given is cell-based, human. As to conditions: MV-4-11 cells, 48 hours. On the set-up: RFU PODN (11730768_x_at) / Fold change /veh PODN (11730768_x_at) / RFU LINC00158 (11744669_a_at) / Fold change /veh LINC00158 (11744669_a_at) / RFU DUSP10 (11751237_a_at) / Fold change /veh DUSP10 (11751237_a_at) / RFU ID3 (11757404_x_at) / Fold change /veh ID3 (11757404_x_at) / RFU PLEKHG5 (11737974_s_at) / Fold change /veh PLEKHG5 (11737974_s_at) / RFU LRRC4B (11730491_at) / Fold change /veh LRRC4B (11730491_at) / RFU GIMAP4 (11747438_a_at) / Fold change /veh GIMAP4 (11747438_a_at) / RFU KRT8 (11758183_x_at) / Fold change /veh KRT8 (11758183_x_at) / RFU CNN1 (11734310_a_at) / Fold change /veh CNN1 (11734310_a_at) / RFU VPS37D (11726825_at) / Fold change /veh VPS37D (11726825_at) / RFU C10orf10 (11716522_x_at) / Fold change /veh C10orf10 (11716522_x_at) / RFU KIR2DL2 /// KIR2DL4 /// KIR2DL5A /// KIR2DL5B /// KIR2DS1 /// KIR2DS2 /// KIR2DS3 /// KIR2DS4 /// KIR3DL3 /// KIR3DL3 /// KIR3DS1 (11738374_at) / Fold change /veh KIR2DL2 /// KIR2DL4 /// KIR2DL5A /// KIR2DL5B /// KIR2DS1 /// KIR2DS2 /// KIR2DS3 /// KIR2DS4 /// KIR3DL3 /// KIR3DL3 /// KIR3DS1 (11738374_at) / RFU C1QL1 (11718748_at) / Fold change /veh C1QL1 (11718748_at) / RFU TMPRSS4 (11747572_a_at) / Fold change /veh TMPRSS4 (11747572_a_at) / RFU HAMP (11756126_x_at) / Fold change /veh HAMP (11756126_x_at) / RFU RNFT2 (11725882_a_at) / Fold change /veh RNFT2 (11725882_a_at) / RFU NR4A2 (11747474_a_at) / Fold change /veh NR4A2 (11747474_a_at) / RFU ABCC12 (11746883_a_at) / Fold change /veh ABCC12 (11746883_a_at) / RFU TMEM136 (11760407_x_at) / Fold change /veh TMEM136 (11760407_x_at) / RFU CLDN22 /// WWC2 (11732394_at) / Fold change /veh CLDN22 /// WWC2 (11732394_at) / RFU HLA-DPB1 (11760878_x_at) / Fold change /veh HLA-DPB1 (11760878_x_at) / RFU SPINT1 (11716480_a_at) / Fold change /veh SPINT1 (11716480_a_at) / RFU GAP43 (11754022_s_at) / Fold change /veh GAP43 (11754022_s_at) / RFU A4GNT (11735810_at) / Fold change /veh A4GNT (11735810_at) / RFU PRB3 (11715151_x_at) / Fold change /veh PRB3 (11715151_x_at) / RFU TUBB4B (11761932_at) / Fold change /veh TUBB4B (11761932_at) / RFU CAPN14 (11732068_a_at) / Fold change /veh CAPN14 (11732068_a_at) / RFU TMCC2 (11721928_a_at) / Fold change /veh TMCC2 (11721928_a_at) / RFU IRGQ (11745062_a_at) / Fold change /veh IRGQ (11745062_a_at) / RFU FAM174B (11720279_a_at) / Fold change /veh FAM174B (11720279_a_at) / RFU TMPRSS4 (11748680_a_at) / Fold change /veh TMPRSS4 (11748680_a_at) / RFU FAM212B (11763350_a_at) / Fold change /veh FAM212B (11763350_a_at) / RFU PLEKHG5 (11743358_a_at) / Fold change /veh PLEKHG5 (11743358_a_at) / RFU ZSCAN30 (11745921_a_at) / Fold change /veh ZSCAN30 (11745921_a_at) / RFU CMKLR1 (11741424_a_at) / Fold change /veh CMKLR1 (11741424_a_at) / RFU LOC101060620 /// MAPK8IP1 (11723275_at) / Fold change /veh LOC101060620 /// MAPK8IP1 (11723275_at) / RFU SPTSSB (11747773_x_at) / Fold change /veh SPTSSB (11747773_x_at) / RFU PRSS12 (11739890_at) / Fold change /veh PRSS12 (11739890_at) / RFU BIN1 (11741810_x_at) / Fold change /veh BIN1 (11741810_x_at) / RFU WNT11 (11732464_a_at) / Fold change /veh WNT11 (11732464_a_at) / RFU C10orf10 (11716521_a_at) / Fold change /veh C10orf10 (11716521_a_at) / RFU C5orf56 (11738089_at) / Fold change /veh C5orf56 (11738089_at) / RFU CYB561 (11721691_x_at) / Fold change /veh CYB561 (11721691_x_at) / RFU ANKRD19P (11752326_a_at) / Fold change /veh ANKRD19P (11752326_a_at) / RFU OR2T12 /// OR2T33 /// OR2T8 (11738714_s_at) / Fold change /veh OR2T12 /// OR2T33 /// OR2T8 (11738714_s_at) / RFU VCAN (11748164_a_at) / Fold change /veh VCAN (11748164_a_at) / RFU JSRP1 (11732532_at) / Fold change /veh JSRP1 (11732532_at) / RFU KRTAP10-11 (11738290_x_at) / Fold change /veh KRTAP10-11 (11738290_x_at) / RFU MYO3A (11730013_a_at) / Fold change /veh MYO3A (11730013_a_at) / RFU EBF3 (11725865_a_at) / Fold change /veh EBF3 (11725865_a_at) / RFU CAMK2N1 (11719241_x_at) / Fold change /veh CAMK2N1 (11719241_x_at) / RFU C5orf56 (11738088_a_at) / Fold change /veh C5orf56 (11738088_a_at) / RFU OLFML3 (11715873_a_at) / Fold change /veh OLFML3 (11715873_a_at) / RFU LOC100653217 /// NTM (11731650_a_at) / Fold change /veh LOC100653217 /// NTM (11731650_a_at) / RFU MAPK11 (11762145_a_at) / Fold change /veh MAPK11 (11762145_a_at) / RFU FIZ1 (11724087_x_at) / Fold change /veh FIZ1 (11724087_x_at) / RFU OASL (11726364_x_at) / Fold change /veh OASL (11726364_x_at) / RFU SOX15 (11748057_x_at) / Fold change /veh SOX15 (11748057_x_at) / RFU CD79A (11719716_a_at) / Fold change /veh CD79A (11719716_a_at) / RFU HIST1H1D (11736915_at) / Fold change /veh HIST1H1D (11736915_at) / RFU CASKIN2 (11723855_a_at) / Fold change /veh CASKIN2 (11723855_a_at) / RFU LOC730098 (11760151_x_at) / Fold change /veh LOC730098 (11760151_x_at) / RFU OR4N2 (11742367_at) / Fold change /veh OR4N2 (11742367_at) / RFU PRRT2 (11749266_a_at) / Fold change /veh PRRT2 (11749266_a_at) / RFU SNX32 (11753110_a_at) / Fold change /veh SNX32 (11753110_a_at) / RFU CDHR5 (11726645_a_at) / Fold change /veh CDHR5 (11726645_a_at) / RFU RCAN1 (11760418_a_at) / Fold change /veh RCAN1 (11760418_a_at) / RFU FAM167A (11723789_a_at) / Fold change /veh FAM167A (11723789_a_at) / RFU FAM26E (11764081_at) / Fold change /veh FAM26E (11764081_at) / RFU ISYNA1 (11749810_s_at) / Fold change /veh ISYNA1 (11749810_s_at) / RFU ACY1 (11761880_at) / Fold change /veh ACY1 (11761880_at) / RFU 11764098_at / Fold change /veh 11764098_at / RFU SAMD14 (11745864_x_at) / Fold change /veh SAMD14 (11745864_x_at) / RFU NPB (11741838_a_at) / Fold change /veh NPB (11741838_a_at) / RFU TMPRSS6 (11731388_a_at) / Fold change /veh TMPRSS6 (11731388_a_at) / RFU KRTAP10-2 (11738614_at) / Fold change /veh KRTAP10-2 (11738614_at) / RFU ARHGAP8 /// PRR5-ARHGAP8 (11727945_x_at) / Fold change /veh ARHGAP8 /// PRR5-ARHGAP8 (11727945_x_at) / RFU KRTAP5-7 /// NADSYN1 (11734609_at) / Fold change /veh KRTAP5-7 /// NADSYN1 (11734609_at) / RFU RASL12 (11751679_a_at) / Fold change /veh RASL12 (11751679_a_at) / RFU CDKN2B (11736163_a_at) / Fold change /veh CDKN2B (11736163_a_at) / RFU PRF1 (11729649_at) / Fold change /veh PRF1 (11729649_at) / RFU, ZNF638 /// ZNF638-IT1 / Fold change vs veh, ZNF638 /// ZNF638-IT1 / RFU, PANK3 / Fold change vs veh, PANK3 / RFU, SH3YL1 / Fold change vs veh, SH3YL1 / RFU, ZEB2 / Fold change vs veh, ZEB2 / RFU, NRIP1 / Fold change vs veh, NRIP1 / RFU, PTTG1IP / Fold change vs veh, PTTG1IP / RFU, CAPN2 / Fold change vs veh, CAPN2 / RFU, MED14 / Fold change vs veh, MED14 / RFU, SNORA58 / Fold change vs veh, SNORA58 / RFU, C1orf63 / Fold change vs veh, C1orf63 / RFU, LRRFIP1 / Fold change vs veh, LRRFIP1 / RFU, NDUFAF7 / Fold change vs veh, NDUFAF7 / RFU, SLC12A2 / Fold change vs veh, SLC12A2 / RFU, IBTK / Fold change vs veh, IBTK / RFU, ESF1 / Fold change vs veh, ESF1 / Fold change vs veh, TMEM50B / RFU, TAOK1 / Fold change vs veh, TAOK1 / RFU, ACBD3 / Fold change vs veh, ACBD3 / RFU, TMA16 / Fold change vs veh, TMA16 / RFU, RWDD3 / Fold change vs veh, RWDD3 / RFU, BCAT1 / Fold change vs veh, BCAT1 / RFU, EDEM3 / Fold change vs veh, EDEM3 / RFU, TMEM33 / Fold change vs veh, TMEM33 / RFU, WDR75 / Fold change vs veh, WDR75 / RFU, AHCTF1 / Fold change vs veh, AHCTF1 / RFU, TFRC / Fold change vs veh, TFRC / RFU, ZDHHC17 / Fold change vs veh, ZDHHC17 / RFU, NOM1 / Fold change vs veh, NOM1 / RFU, ARL8B / Fold change vs veh, ARL8B / RFU, ZBTB11 / Fold change vs veh, ZBTB11 / RFU, TAMM41 / Fold change vs veh, TAMM41 / RFU, KIAA1704 /// LOC100996395 / Fold change vs veh, KIAA1704 /// LOC100996395 / RFU, ING1 / Fold change vs veh, ING1 / RFU, TRMT61B / Fold change vs veh, TRMT61B / RFU, FUBP3 / Fold change vs veh, FUBP3 / RFU, TP53 / Fold change vs veh, TP53 / RFU, TNKS2 / Fold change vs veh, TNKS2 / RFU, ZFP14 / Fold change vs veh, ZFP14 / RFU, ACTR2 / Fold change vs veh, ACTR2 / RFU, PPP3R1 / Fold change vs veh, PPP3R1 / RFU, PIK3R1 / Fold change vs veh, PIK3R1 / RFU, HNRNPA1 / Fold change vs veh, HNRNPA1 / RFU, RNF170 / Fold change vs veh, RNF170 / RFU, ZNF28 / Fold change vs veh, ZNF28 / RFU, RNGTT / Fold change vs veh, RNGTT / RFU, OGT / Fold change vs veh, OGT / RFU, BRD1 / Fold change vs veh, BRD1 / RFU, MARS / Fold change vs veh, MARS / RFU, ZNF655 / Fold change vs veh, ZNF655 / RFU, FAHD1 / Fold change vs veh, FAHD1 / RFU, BDP1 / Fold change vs veh, BDP1 / RFU, LRRCC1 / Fold change vs veh, LRRCC1 / RFU, ARID1A / Fold change vs veh, ARID1A / RFU, ZNF146 / Fold change vs veh, ZNF146 / RFU, ZNF330 / Fold change vs veh, ZNF330 / RFU, GPN3 / Fold change vs veh, GPN3 / RFU, C9orf123 / Fold change vs veh, C9orf123 / RFU, N4BP2L2 / Fold change vs veh, N4BP2L2 / RFU, ARFIP1 / Fold change vs veh, ARFIP1 / RFU, FAM179B / Fold change vs veh, FAM179B / RFU, BCL10 / Fold change vs veh, BCL10 / RFU, UHRF1BP1L / Fold change vs veh, UHRF1BP1L / RFU, BET1 / Fold change vs veh, BET1 / RFU, CNOT2 / Fold change vs veh, CNOT2 / RFU, ZNF268 / Fold change vs veh, ZNF268 / Fold change vs veh, ZNF507 / RFU, DGCR2 / Fold change vs veh, DGCR2 / RFU, WDSUB1 / Fold change vs veh, WDSUB1 / Fold change vs veh, HSP90B1 /// MIR3652 / RFU, ADSS / Fold change vs veh, ADSS / RFU, GK / Fold change vs veh, GK / RFU, ZNF148 / Fold change vs veh, ZNF148 / RFU, TAF9 / Fold change vs veh, TAF9 / RFU, SLC1A5 / Fold change vs veh, SLC1A5 / RFU, SLMO2 / Fold change vs veh, SLMO2 / RFU, ABCC4 / Fold change vs veh, ABCC4 / RFU, LOC101060439 /// RAP1B / Fold change vs veh, LOC101060439 /// RAP1B / RFU, RFX7 / Fold change vs veh, RFX7 / RFU, GTPBP10 / Fold change vs veh, GTPBP10 / RFU, CNEP1R1 / Fold change vs veh, CNEP1R1 / RFU, BIVM-ERCC5 /// ERCC5 / Fold change vs veh, BIVM-ERCC5 /// ERCC5 / RFU, ILF3 / Fold change vs veh, ILF3 / RFU 11762660_at / Fold change /veh 11762660_at / RFU VCAN (11757783_s_at) / Fold change /veh VCAN (11757783_s_at) / RFU DDX43 (11728927_at) / Fold change /veh DDX43 (11728927_at) / RFU KRT8 (11758188_x_at) / Fold change /veh KRT8 (11758188_x_at) / RFU NKD1 (11759106_at) / Fold change /veh NKD1 (11759106_at) / RFU SRD5A1 (11742802_a_at) / Fold change /veh SRD5A1 (11742802_a_at) / RFU TPSAB1 /// TPSB2 (11721975_s_at) / Fold change /veh TPSAB1 /// TPSB2 (11721975_s_at) / RFU GSTM3 (11746129_a_at) / Fold change /veh GSTM3 (11746129_a_at) / RFU IL23R (11737362_x_at) / Fold change /veh IL23R (11737362_x_at) / RFU TMEM51 (11727254_a_at) / Fold change /veh TMEM51 (11727254_a_at) / RFU PIWIL2 (11732686_x_at) / Fold change /veh PIWIL2 (11732686_x_at) / RFU ORM1 (11744905_x_at) / Fold change /veh ORM1 (11744905_x_at) / RFU CCDC152 (11743942_at) / Fold change /veh CCDC152 (11743942_at) / RFU ECM1 (11717891_a_at) / Fold change /veh ECM1 (11717891_a_at) / RFU IL23R (11748794_a_at) / Fold change /veh IL23R (11748794_a_at) / RFU TNFAIP8L3 (11732012_x_at) / Fold change /veh TNFAIP8L3 (11732012_x_at) / RFU MBOAT4 (11741988_at) / Fold change /veh MBOAT4 (11741988_at) / RFU 11764193_at / Fold change /veh 11764193_at / RFU TMEM53 (11763286_at) / Fold change /veh TMEM53 (11763286_at) / RFU MAGEB2 (11727129_at) / Fold change /veh MAGEB2 (11727129_at) / RFU TMEM200A (11744735_a_at) / Fold change /veh TMEM200A (11744735_a_at) / RFU CCDC152 (11751479_a_at) / Fold change /veh CCDC152 (11751479_a_at) / RFU FAM211A (11726209_a_at) / Fold change /veh FAM211A (11726209_a_at) / RFU RGS16 (11746705_a_at) / Fold change /veh RGS16 (11746705_a_at) / RFU VCAN (11755009_s_at) / Fold change /veh VCAN (11755009_s_at) / RFU RHOB (11743442_s_at) / Fold change /veh RHOB (11743442_s_at) / RFU RGS16 (11720943_a_at) / Fold change /veh RGS16 (11720943_a_at) / RFU RGS16 (11720944_at) / Fold change /veh RGS16 (11720944_at) / RFU, VPS4B / Fold change vs veh, VPS4B / RFU, CREB1 / Fold change vs veh, CREB1 / RFU, DNAJC13 / Fold change vs veh, DNAJC13 / RFU, GNAQ / Fold change vs veh, GNAQ / RFU, CDK5R1 / Fold change vs veh, CDK5R1 / RFU, ZRANB3 / Fold change vs veh, ZRANB3 / RFU, CUL4A / Fold change vs veh, CUL4A / RFU, CCNY / Fold change vs veh, CCNY / RFU, UFL1 / Fold change vs veh, UFL1 / RFU, COG3 / Fold change vs veh, COG3 / RFU, DIAPH2 / Fold change vs veh, DIAPH2 / RFU, SKA2 / Fold change vs veh, SKA2 / RFU, AFF3 / Fold change vs veh, AFF3 / RFU, LMF1 / Fold change vs veh, LMF1 / RFU, IPO11 / Fold change vs veh, IPO11 / RFU, DFFB / Fold change vs veh, DFFB / RFU, FOXP1 / Fold change vs veh, FOXP1 / RFU, CARD8 / Fold change vs veh, CARD8 / RFU, STRN3 / Fold change vs veh, STRN3 / RFU, ADK / Fold change vs veh, ADK / RFU, RASSF2 / Fold change vs veh, RASSF2 / RFU, WIPF1 / Fold change vs veh, WIPF1 / RFU, LARP1B / Fold change vs veh, LARP1B / RFU, RASA1 / Fold change vs veh, RASA1 / RFU, RB1 / Fold change vs veh, RB1 / RFU, PPFIA1 / Fold change vs veh, PPFIA1 / RFU, MAT2A / Fold change vs veh, MAT2A / RFU, CCT5 / Fold change vs veh, CCT5 / RFU, WDR92 / Fold change vs veh, WDR92 / RFU, CUX1 / Fold change vs veh, CUX1 / RFU, TTC7A / Fold change vs veh, TTC7A / RFU, TMEM135 / Fold change vs veh, TMEM135 / RFU, DEPTOR / Fold change vs veh, DEPTOR / RFU, CPM / Fold change vs veh, CPM / RFU, DNAJB6 / Fold change vs veh, DNAJB6 / RFU, CACNA2D3 / Fold change vs veh, CACNA2D3 / RFU, DTX4 / Fold change vs veh, DTX4 / RFU, TFCP2 / Fold change vs veh, TFCP2 / RFU, GMCL1 /// GMCL1P1 / Fold change vs veh, GMCL1 /// GMCL1P1 / RFU, AEBP2 / Fold change vs veh, AEBP2 / RFU, SNHG1 /// SNORD22 /// SNORD25 /// SNORD26 /// SNORD27 /// SNORD28 /// SNORD29 /// SNORD31 / Fold change vs veh, SNHG1 /// SNORD22 /// SNORD25 /// SNORD26 /// SNORD27 /// SNORD28 /// SNORD29 /// SNORD31 / Fold change (Aza/veh), C12orf56 (ProbeSet 11735607_a_at) / Fold change (ACY-1035/veh), C12orf56 (ProbeSet 11735607_a_at) / Fold change (Aza/veh), FGFR1OP (ProbeSet 11751329_s_at) / Fold change (ACY-1035/veh), FGFR1OP (ProbeSet 11751329_s_at) / Fold change (Aza/veh), VPS36 (ProbeSet 11739960_a_at) / Fold change (ACY-1035/veh), VPS36 (ProbeSet 11739960_a_at) / RFU SYPL1 (11715823_x_at) / Fold change /veh SYPL1 (11715823_x_at) / RFU IGFBP7 (11715501_s_at) / Fold change /veh IGFBP7 (11715501_s_at) / RFU REEP3 (11722064_at) / Fold change /veh REEP3 (11722064_at) / RFU IGLL1 (11728026_x_at) / Fold change /veh IGLL1 (11728026_x_at): dose or concentration left out as unconfirmed.

SMILES strings stand for the structures.

Take `Nc1ncn([C@@H]2O[C@H](CO)[C@@H](O)[C@H]2O)c(=O)n1` [azacitidine]: the “RFU FAM174B (11720279_a_at)” value worked out at 25.09 RFU.
